Test results reported in US11839641B2, “Methods and compositions for treatment of lysosomal storage disorders” (JME Group Associates Inc., priority 2020, dated 2023).

Tests used:
[1] = target: T1, Barley GAA (high-isoelectric-point (pI) α-glucosidase) (Hordeum vulgare, UniProt Q43763); settings: cited from earlier work
T1 sequence (Q43763 24-877): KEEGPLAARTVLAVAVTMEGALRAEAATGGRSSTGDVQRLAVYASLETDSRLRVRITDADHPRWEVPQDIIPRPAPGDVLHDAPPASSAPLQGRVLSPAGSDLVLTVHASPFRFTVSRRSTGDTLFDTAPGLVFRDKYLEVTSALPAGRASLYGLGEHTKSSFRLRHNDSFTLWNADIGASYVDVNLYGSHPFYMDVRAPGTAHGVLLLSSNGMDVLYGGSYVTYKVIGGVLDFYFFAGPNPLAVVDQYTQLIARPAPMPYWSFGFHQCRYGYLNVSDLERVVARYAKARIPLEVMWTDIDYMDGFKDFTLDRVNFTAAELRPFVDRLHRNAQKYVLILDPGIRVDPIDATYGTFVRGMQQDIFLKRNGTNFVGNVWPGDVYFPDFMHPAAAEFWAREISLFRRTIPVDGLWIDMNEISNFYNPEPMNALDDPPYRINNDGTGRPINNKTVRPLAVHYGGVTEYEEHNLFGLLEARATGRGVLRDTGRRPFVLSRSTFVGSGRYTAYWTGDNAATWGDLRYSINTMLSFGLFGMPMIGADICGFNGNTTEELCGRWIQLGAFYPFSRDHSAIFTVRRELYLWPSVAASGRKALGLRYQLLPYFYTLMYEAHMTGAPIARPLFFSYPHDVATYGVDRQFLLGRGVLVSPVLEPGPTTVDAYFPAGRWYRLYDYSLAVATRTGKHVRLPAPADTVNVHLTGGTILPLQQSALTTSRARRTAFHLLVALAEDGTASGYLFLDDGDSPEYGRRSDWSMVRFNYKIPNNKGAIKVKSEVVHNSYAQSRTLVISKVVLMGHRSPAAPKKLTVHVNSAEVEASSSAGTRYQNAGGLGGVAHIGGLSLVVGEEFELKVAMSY

[2] = tested on: GAA KO mice; settings: cited from earlier work
[3] = tested on: GAA KO mice white blood cells; assay: Uptake of GGB crude lysate by GAA KO mouse white blood cells ± mannose-6-phosphate; assay type: cell-based; settings: 5 mM mannose-6-phosphate
Description: (§1) Uptake of a crude lysate of 7-8 day GGB by white blood cells (“WBC”) from humans and GAA KO mice was tested. Each treatment was performed±5 mM mannose-6 phosphate. Mannose-6 phosphate treatment blocks uptake by the M-6-P receptor (Martiniuk et al., “Further Studies of The Structure of Human Placental Acid Alpha-Glucosidase,” Arch Biochem Biophys 231:454-460 (1984); Martiniuk et al., “Production of a Functional Human Acid Maltase in Tobacco Seeds: Biochemical Analysis, Uptake by Human GSDII Cells, and in vivo Studies in GAA Knockout Mice,” Appl Biochem Biotechnol 171:916-926 (2013), each of which is hereby incorporated by reference in their entirety). Human placental GAA (hGAA) was used as a positive control. Anti-coagulate-EDTA was added at 1.5 to 2.0 mg/ml of whole blood. 0.15 ml of human and mouse KO blood was used and a 14×RBC lysing solution (NH4Cl (ammonium chloride)—8.02 g; NaHCO3 (sodium bicarbonate)—0.84 g; EDTA (disodium)—0.37 g to 100 ml with water) was added in a 1.5 ml microfuge tube, inverted for 10 minutes at RT until the liquid was clear red followed by spinning for 1 minute in a microfuge. The supernatant was decanted, cells were washed with phosphate buffered saline (PBS) and re-suspend in 2.4 ml complete DMEM-10% FBS (Life Technologies). […]

[4] = tested on: human white blood cells; assay: Uptake of GGB crude lysate by human white blood cells; assay type: cell-based; settings: 18 hrs at 37° C.
Description: as §1

C[C@H]1O[C@H](O[C@H]2[C@H](O)[C@@H](O)[C@@H](O[C@H]3[C@H](O)[C@@H](O)C(O)O[C@@H]3CO)O[C@@H]2CO)[C@H](O)[C@@H](O)[C@@H]1N[C@H]1C=C(CO)[C@@H](O)[C@H](O)[C@H]1O (stereo partly drawn) [Acarbose]
Ki [1]: 1.5 µM

rhGAA: recombinant human GAA
Glycogen reduction ([2]; 20 mg/kg/wk for 5 mo., skeletal muscle): < 50%
enzyme uptake by skeletal muscle compared to liver and heart ([2]; 20 mg/kg/wk for 5 mo.): minimal
glycogen clearance in skeletal muscle ([2]; 100 mg/kg/wk): ~75%

placental hGAA: Human placental GAA (hGAA) used as a positive control
uptake with mannose-6-phosphate [3]: blocked
GAA/NAG ratio compared to mock treated cells [4]: higher ratios of GAA/NAG
